Source: patent US8633183B2 (priority 2010, dated 2014)

Target: PI3Kalpha (Homo sapiens (Human), UniProt P42336)
Details: read-out: IC50 PI3K

PI3Kalpha, sequence (P42336 whole entry, looked up): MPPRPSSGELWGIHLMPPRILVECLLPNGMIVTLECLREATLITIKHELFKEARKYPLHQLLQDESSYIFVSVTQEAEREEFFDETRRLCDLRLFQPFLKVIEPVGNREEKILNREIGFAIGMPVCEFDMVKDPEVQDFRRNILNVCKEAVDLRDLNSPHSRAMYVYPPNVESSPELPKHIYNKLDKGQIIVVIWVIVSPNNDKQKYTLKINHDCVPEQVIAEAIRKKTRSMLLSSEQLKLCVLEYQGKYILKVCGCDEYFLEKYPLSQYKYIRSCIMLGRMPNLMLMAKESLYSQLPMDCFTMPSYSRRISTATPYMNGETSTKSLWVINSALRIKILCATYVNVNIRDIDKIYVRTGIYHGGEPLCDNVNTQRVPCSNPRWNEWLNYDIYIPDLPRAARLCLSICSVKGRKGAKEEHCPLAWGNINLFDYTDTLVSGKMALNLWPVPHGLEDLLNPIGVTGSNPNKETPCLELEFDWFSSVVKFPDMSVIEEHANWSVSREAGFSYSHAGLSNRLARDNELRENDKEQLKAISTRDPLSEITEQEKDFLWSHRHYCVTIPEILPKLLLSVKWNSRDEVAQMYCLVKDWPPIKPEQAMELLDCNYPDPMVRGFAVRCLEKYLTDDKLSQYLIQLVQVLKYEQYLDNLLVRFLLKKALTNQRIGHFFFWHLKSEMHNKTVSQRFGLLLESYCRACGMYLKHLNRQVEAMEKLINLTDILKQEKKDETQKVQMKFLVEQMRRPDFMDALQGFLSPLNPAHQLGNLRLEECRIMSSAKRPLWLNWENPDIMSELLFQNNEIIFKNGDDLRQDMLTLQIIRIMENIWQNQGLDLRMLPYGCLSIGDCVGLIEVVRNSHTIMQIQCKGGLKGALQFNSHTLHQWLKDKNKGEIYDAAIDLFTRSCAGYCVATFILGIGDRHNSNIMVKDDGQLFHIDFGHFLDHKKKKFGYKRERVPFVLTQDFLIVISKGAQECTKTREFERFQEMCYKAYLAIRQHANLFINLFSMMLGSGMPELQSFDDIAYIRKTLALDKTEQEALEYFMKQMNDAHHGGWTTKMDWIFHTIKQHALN

| Structure (SMILES) | IC50 [nM] |
| --- | --- |
| CCc1ncnc(-c2ccc(C(=O)N3CCC[C@H]3CO)c(F)c2)c1C#Cc1ccc(N)nc1 [Example E-17] | 136 |
| CCc1ncnc(-c2ccc(C(=O)N3CCN(CC4CC4)CC3)c(Cl)c2)c1C#Cc1ccc(N)nc1 [Example E-18] | 228 |
| CCc1ncnc(-c2ccc(C(=O)N3CCC4(CC3)OCCCO4)c(Cl)c2)c1C#Cc1ccc(N)nc1 [Example E-19] | 90.5 |
| CCc1ncnc(-c2ccc(C(=O)N3CCC(C(C)(C)O)CC3)c(Cl)c2)c1C#Cc1ccc(N)nc1 [Example E-20] | 101 |
| CCc1ncnc(-c2ccc(C(=O)N3CCC(C4CCN(C)CC4)CC3)c(Cl)c2)c1C#Cc1ccc(N)nc1 [Example E-21] | 374 |
| CCc1ncnc(-c2ccc(C(=O)NC3CCCN(C)C3)c(Cl)c2)c1C#Cc1ccc(N)nc1 (centres unmarked) [Example E-22] | 510 |
| CCc1ncnc(-c2ccc(C(=O)N3CCC(OC)CC3)c(Cl)c2)c1C#Cc1ccc(N)nc1 [Example E-24] | 93.5 |
| CCc1ncnc(-c2ccc(C(=O)N3CCC(C)(O)CC3)c(Cl)c2)c1C#Cc1ccc(N)nc1 [Example E-25] | 76.8 |
| CCc1ncnc(-c2ccc(C(=O)N3CCC4(CCN(C)CC4)CC3)c(Cl)c2)c1C#Cc1ccc(N)nc1 [Example E-26] | 498 |
| CCc1ncnc(-c2ccc(C(=O)N3CC[C@H](O)C3)c(Cl)c2)c1C#Cc1ccc(N)nc1 [Example E-27] | 58.3 |
| CCc1ncnc(-c2ccc(C(=O)N3CC[C@@H](O)C3)c(Cl)c2)c1C#Cc1ccc(N)nc1 [Example E-28] | 65.6 |
| CCc1ncnc(-c2ccc(C(=O)N3CCCC(O)C3)c(Cl)c2)c1C#Cc1ccc(N)nc1 (centres unmarked) [Example E-29] | 65 |
| CCc1ncnc(-c2ccc(C(=O)N3CCNCC3)c(Cl)c2)c1C#Cc1ccc(N)nc1 [Example E-34] | 164 |
| CCc1ncnc(-c2ccc(C(=O)N(C)O)c(Cl)c2)c1C#Cc1ccc(N)nc1 [Example E-35] | 67.4 |
| CCc1ncnc(-c2ccc(C(=O)N3CCCN(C)CC3)c(Cl)c2)c1C#Cc1ccc(N)nc1 [Example E-36] | 405 |
| CCc1ncnc(-c2ccc(C(=O)N3CCN(c4ccncc4)CC3)c(Cl)c2)c1C#Cc1ccc(N)nc1 [Example E-37] | 209 |
| CCc1ncnc(-c2ccc(C(=O)N3CCC(O)CC3)c(Cl)c2)c1C#Cc1ccc(N)nc1 [Example E-38] | 52.9 |
| CCc1ncnc(-c2ccc(C(=O)N3CCCOCC3)c(Cl)c2)c1C#Cc1ccc(N)nc1 [Example E-39] | 65.3 |
| CCc1ncnc(-c2ccc(C(=O)N3CCC4(CCN(C)C4)C3)c(Cl)c2)c1C#Cc1ccc(N)nc1 (centres unmarked) [Example E-40] | 514 |
| CCc1ncnc(-c2ccc(C(=O)NCC3(C)COC3)c(Cl)c2)c1C#Cc1ccc(N)nc1 [Example E-41] | 66 |
| CCCCN1CCN(C(=O)c2ccc(-c3ncnc(CC)c3C#Cc3ccc(N)nc3)cc2OC)CC1 [Example E-43] | 502 |
| CCc1ncnc(-c2ccc(C(=O)N3CCC(C(C)(C)O)CC3)c(OC)c2)c1C#Cc1ccc(N)nc1 [Example E-44] | 232 |
| CCc1ncnc(-c2ccc(C(=O)N3CCC(N4CCN(C)CC4)CC3)c(OC)c2)c1C#Cc1ccc(N)nc1 [Example E-45] | 96.9 |
| CCc1ncnc(-c2ccc(C(=O)N3CCCC(O)C3)c(OC)c2)c1C#Cc1ccc(N)nc1 (centres unmarked) [Example E-46] | 104 |
| CCc1ncnc(-c2ccc(C(=O)N3CCOCC3)c(OC)c2)c1C#Cc1ccc(N)nc1 [Example E-48] | 100 |

| Structure (SMILES) | IC50 [nM] |
| --- | --- |
| CCc1ncnc(-c2ccc(C(=O)N3CC(O)CO3)c(OC)c2)c1C#Cc1ccc(N)nc1 (centres unmarked) [Example E-49] | 74.5 |
| CCc1ncnc(-c2ccc(C(=O)N3CCCO3)c(OC)c2)c1C#Cc1ccc(N)nc1 [Example E-50] | 157 |
| CCc1ncnc(-c2ccc(C(=O)N3CCCC(N(C)C)C3)c(OC)c2)c1C#Cc1ccc(N)nc1 (centres unmarked) [Example E-51] | 205 |
| CCc1ncnc(-c2ccc(C(=O)N3CCC(N4CCC(C)CC4)C3)c(OC)c2)c1C#Cc1ccc(N)nc1 (centres unmarked) [Example E-52] | 578 |
| CCc1ncnc(-c2ccc(C(=O)N3CCN(C4CCS(=O)(=O)C4)CC3)c(OC)c2)c1C#Cc1ccc(N)nc1 (centres unmarked) [Example E-54] | 165 |
| CCc1ncnc(-c2ccc(C(=O)N3CC[C@H](N(C)C)C3)c(OC)c2)c1C#Cc1ccc(N)nc1 [Example E-55] | 148 |
| CCc1ncnc(-c2ccc(C(=O)N3CCN4CCCCC4C3)c(OC)c2)c1C#Cc1ccc(N)nc1 (centres unmarked) [Example E-57] | 280 |
| CCc1ncnc(-c2ccc(C(=O)N3CCC(N4CCCCCC4)CC3)c(OC)c2)c1C#Cc1ccc(N)nc1 [Example E-58] | 253 |
| CCc1ncnc(-c2ccc(C(=O)N3CCC(N(C)C)CC3)c(OC)c2)c1C#Cc1ccc(N)nc1 [Example E-59] | 294 |
| CCc1ncnc(-c2ccc(C(=O)N(C)OC)c(OC)c2)c1C#Cc1ccc(N)nc1 [Example E-60] | 69.4 |
| CCc1ncnc(-c2ccc(C(=O)N(C)C3CCS(=O)(=O)C3)c(OC)c2)c1C#Cc1ccc(N)nc1 (centres unmarked) [Example E-61] | 103 |
| CCOC(=O)N1CCN(C(=O)c2ccc(-c3ncnc(CC)c3C#Cc3ccc(N)nc3)cc2OC)CC1 [Example E-62] | 246 |
| CCc1ncnc(-c2ccc(C(=O)NCCN3CCOCC3)c(OC)c2)c1C#Cc1ccc(N)nc1 [Example E-64] | 118 |
| CCc1ncnc(-c2ccc(C(=O)N(C)CCN3CCCC3=O)c(OC)c2)c1C#Cc1ccc(N)nc1 [Example E-65] | 88 |
| CCc1ncnc(-c2ccc(C(=O)N3CCC4(CCN(C)C4)C3)c(OC)c2)c1C#Cc1ccc(N)nc1 (centres unmarked) [Example E-66] | 662 |
| CCc1ncnc(-c2ccc(C(=O)N3CCN(CC4CCCCC4)CC3)c(OC)c2)c1C#Cc1ccc(N)nc1 [Example E-67] | 3050 |
| CCc1ncnc(-c2ccc(C(=O)N3CCN(C4CCCC4)CC3)c(OC)c2)c1C#Cc1ccc(N)nc1 [Example E-68] | 412 |
| CCc1ncnc(-c2ccc(C(=O)N3CCN(Cc4ccccc4)CC3)c(OC)c2)c1C#Cc1ccc(N)nc1 [Example E-69] | 415 |
| CCc1ncnc(-c2ccc(C(=O)N3CCC(N4CCN(C)CC4)CC3)c(Cl)c2)c1C#Cc1ccc(N)nc1 [Example E-70] | 137 |
| CCc1ncnc(-c2ccc(C(=O)N3CCC(N4CCOCC4)CC3)c(Cl)c2)c1C#Cc1ccc(N)nc1 [Example E-71] | 99.9 |
| CCc1ncnc(-c2ccc(C(=O)N3CCOCC3)c(Cl)c2)c1C#Cc1ccc(N)nc1 [Example E-72] | 66.5 |
| CCc1ncnc(-c2ccc(C(=O)N3CC(O)CO3)c(Cl)c2)c1C#Cc1ccc(N)nc1 (centres unmarked) [Example E-73] | 88.3 |
| CCc1ncnc(-c2ccc(C(=O)N3CCCO3)c(Cl)c2)c1C#Cc1ccc(N)nc1 [Example E-74] | 53.9 |
| CCc1ncnc(-c2ccc(C(=O)N3CCCC(N(C)C)C3)c(Cl)c2)c1C#Cc1ccc(N)nc1 (centres unmarked) [Example E-75] | 275 |
| CCc1ncnc(-c2ccc(C(=O)N3CCC(N4CCC(C)CC4)C3)c(Cl)c2)c1C#Cc1ccc(N)nc1 (centres unmarked) [Example E-76] | 233 |

| Structure (SMILES) | IC50 [nM] |
| --- | --- |
| CCc1ncnc(-c2ccc(C(=O)N(C)OC)c(Cl)c2)c1C#Cc1ccc(N)nc1 [Example E-79] | 50 |
| CCc1ncnc(-c2ccc(C(=O)N(C)C3CCS(=O)(=O)C3)c(Cl)c2)c1C#Cc1ccc(N)nc1 (centres unmarked) [Example E-80] | 48.2 |
| CCc1ncnc(-c2ccc(C(=O)N3CCN(S(=O)(=O)CC)CC3)c(Cl)c2)c1C#Cc1ccc(N)nc1 [Example E-81] | 39.5 |
| CCOC(=O)N1CCN(C(=O)c2ccc(-c3ncnc(CC)c3C#Cc3ccc(N)nc3)cc2Cl)CC1 [Example E-82] | 81.7 |
| CCc1ncnc(-c2ccc(C(=O)NCCN3CCOCC3)c(Cl)c2)c1C#Cc1ccc(N)nc1 [Example E-84] | 113 |
| CCc1ncnc(-c2ccc(C(=O)N(C)CCN3CCCC3=O)c(Cl)c2)c1C#Cc1ccc(N)nc1 [Example E-85] | 56.4 |
| CCCCN1CCN(C(=O)c2ccc(-c3ncnc(CC)c3C#Cc3ccc(N)nc3)cc2C)CC1 [Example E-86] | 147 |
| CCc1ncnc(-c2ccc(C(=O)N3CCC(C(C)(C)O)CC3)c(C)c2)c1C#Cc1ccc(N)nc1 [Example E-87] | 78.8 |
| CCc1ncnc(-c2ccc(C(=O)N3CCN(C4CCOCC4)CC3)c(C)c2)c1C#Cc1ccc(N)nc1 [Example E-88] | 84.4 |
| CCc1ncnc(-c2ccc(C(=O)N3CCC(N4CCOCC4)CC3)c(C)c2)c1C#Cc1ccc(N)nc1 [Example E-91] | 179 |
| CCc1ncnc(-c2ccc(C(=O)N3CCOCC3)c(C)c2)c1C#Cc1ccc(N)nc1 [Example E-92] | 59.5 |
| CCc1ncnc(-c2ccc(C(=O)N3CC(O)CO3)c(C)c2)c1C#Cc1ccc(N)nc1 (centres unmarked) [Example E-93] | 107 |
| CCc1ncnc(-c2ccc(C(=O)N3CCCO3)c(C)c2)c1C#Cc1ccc(N)nc1 [Example E-94] | 146 |
| CCc1ncnc(-c2ccc(C(=O)N3CCC4(CCN(C)CC4)CC3)c(C)c2)c1C#Cc1ccc(N)nc1 [Example E-97] | 367 |
| CCc1ncnc(-c2ccc(C(=O)N3CCC(N4CCCCCC4)CC3)c(C)c2)c1C#Cc1ccc(N)nc1 [Example E-102] | 289 |
| CCc1ncnc(-c2ccc(C(=O)N(C)OC)c(C)c2)c1C#Cc1ccc(N)nc1 [Example E-104] | 71.9 |
| CCc1ncnc(-c2ccc(C(=O)N(C)C3CCS(=O)(=O)C3)c(C)c2)c1C#Cc1ccc(N)nc1 (centres unmarked) [Example E-105] | 51.7 |
| CCOC(=O)N1CCN(C(=O)c2ccc(-c3ncnc(CC)c3C#Cc3ccc(N)nc3)cc2C)CC1 [Example E-107] | 62.9 |
| CCc1ncnc(-c2ccc(C(=O)N3CCN(C(C)=O)CC3)c(C)c2)c1C#Cc1ccc(N)nc1 [Example E-108] | 71.5 |
| CCc1ncnc(-c2ccc(C(=O)N3CCC(N4CCCCC4)CC3)c(C)c2)c1C#Cc1ccc(N)nc1 [Example E-109] | 259 |
| CCc1ncnc(-c2ccc(C(=O)N3CCC4(CCN(C)C4)C3)c(C)c2)c1C#Cc1ccc(N)nc1 (centres unmarked) [Example E-112] | 249 |
| CCc1ncnc(-c2ccc(C(=O)N3CCN(CC4CCCCC4)CC3)c(C)c2)c1C#Cc1ccc(N)nc1 [Example E-113] | 414 |
| CCc1ncnc(-c2ccc(C(=O)N3CCN(Cc4ccccc4)CC3)c(C)c2)c1C#Cc1ccc(N)nc1 [Example E-115] | 154 |
| CCc1ncnc(-c2ccc(C(=O)N3CCN(CC4CC4)CC3)c(C)c2)c1C#Cc1ccc(N)nc1 [Example E-116] | 110 |
